Data from patent US20040019024A1, “Use of vitamin d derivatives as bone resorption inhibitors” (priority 2000, published 2004).

Experiments:
[1] = test system: bone marrow cells of Paget's disease of bone patients; experiment: Osteoclast formation induced by 1α,25-dihydroxyvitamin D3 in bone marrow cultures from Paget's disease of bone patients; assay type: cell-based, human; details: for osteoclast formation (average number of cells ± S.D.): Paget's marrow
Source text: (§1) Mononuclear cells were fractionated from bone marrow cells of healthy normal persons according to a method of Kurihara et al. (Endocrinology, vol. 126, 2733-2741 (1990)). Briefly, bone marrow cells were obtained from normal persons, a mononuclear cell fraction was collected by Hypaque-Ficoll density gradient centrifugation, the cell fraction was washed with α-Minimal Essential Media (α-MEM) 3 times, and the cells dispersed in α-MEM containing 10% fetal bovine serum. This mononuclear cell suspension was seeded in 100-mm tissue culture plates, the culture plate was kept for 90 minutes at 37° C. in a 4% CO2-air atmosphere, and the non-adherent cells were collected. The non-adherent mononuclear cells were dispersed into α-MEM culture medium containing 20% horse serum at 10^6 cells/ml, the cell suspension was seeded into 96-well multi plates at 100 μl/well.
The capacity of the compound 11 (23S isomer) to inhibit osteoclast formation induced by 1α,25-dihydroxyvitamin D3 was evaluated as follows: Various concentrations of 1α,25-dihydroxyvitamin D3, various concentrations of compound 11 ([…]) solution were added to each well. The culture medium was replaced twice weekly and the cultures continued for 3 weeks at 37° C. in an atmosphere of 4% CO2-air. Osteoclasts that formed were identified by their capacity to bind the 23C6 antibody. The nuclei were counter stained with methyl green. Cells that reacted with the 23C6 antibody and had 3 or more nuclei were scored as osteoclasts.
Bone marrow cells were obtained from involved bones of patients with Paget's disease of bone and processed and cultured as described above for normal bone cells. The cultures were treated in an identical manner with 1α,25-dihydroxyvitamin D3 and/or compound 11 (23S isomer) as described in Example 1.
Bone marrow cultures were performed as described in Example 1, with the exception that different types of vitamin D antagonists were added to at varying concentrations to bone marrow cultures stimulated with 1α,25-dihydroxyvitamin D3. The bone marrow cells were taken from involved bones of patients with Paget's disease of bone and the cultures were performed as described in Example 2. There are two diastereoisomers, based on the asymmetric carbon at the 23 position, in compounds 13 and 16. The isomer having the shorter retention time on reverse phase HPLC analysis was the more polar isomer and the isomer having the longer retention time was the less polar isomer.

[2] = test system: bone marrow cells of normal persons; experiment: Osteoclast formation induced by 1α,25-dihydroxyvitamin D3 in normal human bone marrow cultures; assay type: cell-based; details: for osteoclast formation (average number of cells ± S.D.): compound alone, normal marrow, 3 weeks
Source text: as §1, with “μl/well. The capacity of the compound 11 (23S isomer) to inhibit osteoclast formation induced by 1α,25-dihydroxyvitamin D3 was evaluated as follows: Various concentrations of 1α,25-dihydroxyvitamin D3, various concentrations of compound 11 (23S isomer) or a combination of 10^−8 M 1α,25-dihydroxyvitamin D3 solution and various concentrations of compound 11 (23S isomer) solution were added to each well. The culture medium was replaced twice weekly and the cultures continued for 3 weeks at 37° C. in an atmosphere of 4% CO2-air. Osteoclasts that formed were identified by their capacity to bind the 23C6 antibody. The nuclei were counter stained with methyl green. Cells that reacted with the 23C6 antibody and had 3 or more nuclei were scored as osteoclasts.” for “μl/well.”

vitamin D deficient rats = experiment: Bone resorption (serum calcium) induced by 1α,25-dihydroxyvitamin D3 in vitamin D deficient rats; assay type: in vivo, Wistar rats
Protocol: Four-week-old male Wistar rats purchased from Japan SLC (Shizuoka, in Japan) were used. The animals were kept in wire-net cages (three animals in a cage) and raised for 7 weeks with free access to a vitamin D-deficient diet (Ca, 0.0036%; P, 0.3%; Harlan Taklad Research Diet, Madison, Wis., U.S.A.) and drinking water (well water treated with hypochlorite of […]±0.2 ppm). Temperature was kept at 23±1° C. and the humidity at 55±10%. Five animals were used for each experimental group. The control animals received intravenously administered solvent (5% ethanol-0.1% Triton X-100-physiological saline solution), and the experimental animals were intravenously administered 1α,25-dihydroxyvitamin D3 at a dose of 0.25 μg/kg. For animals receiving vitamin D derivatives, compound 11 (23S isomer) was administered intravenously at a dose of 2 μg/kg, 10 μg/kg or 50 μg/kg, or the compound 11 (23S isomer) with or without 1α,25-dihydroxyvitamin D3 at a dose of 0.25 μg/kg. The volume was 2 ml/kg for each animal. 24 hours after administration, a blood sample was taken out from abdominal descending aorta under ether anesthesia, the serum was collected according to conventional methods, and the calcium concentration in the serum was measured. The calcium concentrations were measured according to OCPC-method (Am. J. Clin. Pathol., vol. 45, 290-296 (1966)) with an autoanalyzer (type 7070, manufactured by Hitachi Seisakusho).

[3] = 10^−10 M 1α,25-dihydroxyvitamin D3 + compound 10^−7 M
[4] = 10^−10 M 1α,25-dihydroxyvitamin D3 + compound 10^−8 M
[5] = 10^−10 M 1α,25-dihydroxyvitamin D3 + compound 10^−9 M
[6] = compound alone, Paget's marrow cultures

SMILES | osteoclast formation (average number of cells ± S.D.) [1, 3] [cells] | osteoclast formation (average number of cells ± S.D.) [1, 4] [cells] | osteoclast formation (average number of cells ± S.D.) [1, 5] [cells] | induction of osteoclast formation by the compound alone (in words) ([1]; Paget's marrow cultures) | osteoclast formation (average number of cells ± S.D.) ([1]; compound alone, 10^−7 M) [cells] | osteoclast formation (average number of cells ± S.D.) ([1]; compound alone, 10^−8 M) [cells] | osteoclast formation (average number of cells ± S.D.) ([1]; compound alone, 10^−9 M) [cells] | effect on basal osteoclast formation (in words) [1, 6] | also measured
C=C1CC(CC(C)C2CCC3C(=CC=C4CC(O)CC(O)C4=C)CCCC32C)CC1=O (single isomer, unassigned; less polar) [compound 13 (less polar isomer)] | 14 ± 1 | 70 ± 2 | 127 ± 4 | did not induce the osteoclast formation | 1 ± 1 | 6 ± 2 | 7 ± 1 | inhibited basal osteoclast formation | –
C=C1CC(CC(C)C2CCC3C(=CC=C4CC(O)CC(O)C4=C)CCCC32C)CC1=O (single isomer, unassigned; more polar) [compound 13 (more polar isomer)] | 31 ± 5 | 79 ± 9 | 152 ± 12 | did not induce the osteoclast formation | 3 ± 4 | 25 ± 4 | 44 ± 5 | inhibited basal osteoclast formation | –
C=C1/C(=C\C=C2/CCC[C@]3(C)[C@@H]([C@H](C)CCCC(C)(C)O)CC[C@@H]23)C[C@@H](O)C[C@@H]1O [1α,25-dihydroxyvitamin D3, reference compound] | – | – | – | – | 205 ± 6 | 206 ± 16 | 211 ± 25 | – | osteoclast formation at 10^−10 M (in words) ([2]; 10^−10 M, bone marrow cells of normal persons): is not induced; osteoclast formation (average number of cells ± S.D.) ([2]; 10^−7 M): 91 ± 7 cells; osteoclast formation (average number of cells ± S.D.) ([2]; 10^−8 M): 87 ± 12 cells; osteoclast formation (average number of cells ± S.D.) ([2]; 10^−9 M): 34 ± 6 cells; osteoclast formation (average number of cells ± S.D.) ([2]; 10^−10 M): 11 ± 2 cells; osteoclast formation (average number of cells ± S.D.) ([2]; 10^−11 M): 13 ± 3 cells; concentration at which osteoclast formation was maximal ([2]; normal marrow cultures): 10^−8 M; osteoclast formation at 10^−10 M (in words) ([1]; 10^−10 M, bone marrow cells from Paget's disease of bone patients): is induced; lowest concentration inducing osteoclast formation ([1]; Paget's marrow cultures): 10^−11 M; osteoclast formation (average number of cells ± S.D.) ([1]; compound alone, 10^−10 M): 180 ± 15 cells; osteoclast formation (average number of cells ± S.D.) ([1]; compound alone, 10^−11 M): 134 ± 14 cells; serum calcium concentration compared to controls (in words) (vitamin D deficient rats; 0.25 μg/kg, 24 hours after receiving): significant increased serum calcium concentration; serum Ca concentration (vitamin D deficient rats; compound alone, 0.25 μg/kg intravenously, 24 hours after administration): 5.42 ± 0.12 mg/100 ml serum
C=C1CC(CC(C)C2CCC3C(=CC=C4CC(O)CC(O)C4=C)CCCC32C)OC1=O (stereo not drawn) [compound 11 (23R isomer)] | 18 ± 9 | 70 ± 12 | 145 ± 8 | did not induce the osteoclast formation | 1 ± 1 | 20 ± 3 | 32 ± 3 | inhibited basal osteoclast formation | –
